Measured values: PubChem BioAssay (NCI)
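Exposure lasted 48 hours, with cells grown in 96-well plates and compounds tested at five concentrations. GI50 marks 50% less growth. The concentration for full growth arrest is given as TGI.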

What was measured:
Test in all cases: inhibition of tumour cell growth, NCI panel, 48 h
[1] = system: 786-0 renal
[2] = system: A498 renal
[3] = system: A549 NSCLC
[4] = system: ACHN renal
[5] = system: BT-549 breast
[6] = system: CAKI-1 renal
[7] = system: CCRF-CEM leukemia
[8] = system: DU-145 prostate
[9] = system: EKVX NSCLC
[10] = system: HCC-2998 colon
[11] = system: HCT-116 colon
[12] = system: HCT-15 colon
[13] = system: HL-60(TB) leukemia
[14] = system: HOP-62 NSCLC
[15] = system: HOP-92 NSCLC
[16] = system: HS 578T breast
[17] = system: HT29 colon
[18] = system: IGROV1 ovarian
[19] = system: K-562 leukemia
[20] = system: KM12 colon
[21] = system: LOX IMVI melanoma
[22] = system: M14 melanoma
[23] = system: MALME-3M melanoma
[24] = system: MCF7 breast
[25] = system: MDA-MB-231 breast
[26] = system: MDA-MB-435
[27] = system: MOLT-4 leukemia
[28] = system: NCI-H226 lung

CCOC(=O)c1ccc2c(c1)c1c(C)c3cnccc3c(C)c1n2C
GI50 [1]: 141 nM | TGI [1]: 1110 nM | GI50 [2]: 162 nM | TGI [2]: 376 nM | GI50 [3]: 147 nM | TGI [3]: 1020 nM | GI50 [4]: 38.5 nM | TGI [4]: 328 nM | GI50 [5]: 441 nM | TGI [5]: 1880 nM | GI50 [6]: 47.5 nM | TGI [6]: 859 nM | GI50 [7]: 216 nM | TGI [7]: 2940 nM | GI50 [8]: 108 nM | TGI [8]: 718 nM | GI50 [9]: 193 nM | TGI [9]: 690 nM | GI50 [10]: 257 nM | TGI [10]: 1290 nM | GI50 [11]: 37.8 nM | TGI [11]: 1030 nM | GI50 [12]: 57.1 nM | TGI [12]: 921 nM | GI50 [13]: 324 nM | TGI [13]: 1490 nM | GI50 [14]: 75.5 nM | TGI [14]: 1070 nM | GI50 [15]: 143 nM | TGI [15]: 813 nM | GI50 [16]: 204 nM | TGI [16]: 900 nM | GI50 [17]: 56.1 nM | TGI [17]: 1410 nM | GI50 [18]: 53.9 nM | TGI [18]: 357 nM | GI50 [19]: 79.2 nM | TGI [19]: 1320 nM | GI50 [20]: 128 nM | TGI [20]: 1030 nM | GI50 [21]: 55.8 nM | TGI [21]: 310 nM | GI50 [22]: 151 nM | TGI [22]: 383 nM | GI50 [23]: 131 nM | TGI [23]: 407 nM | GI50 [24]: 205 nM | TGI [24]: 1030 nM | GI50 [25]: 160 nM | TGI [25]: 892 nM | GI50 [26]: 142 nM | TGI [26]: 501 nM | GI50 [27]: 59.4 nM | TGI [27]: 1660 nM | GI50 [28]: 91.1 nM | TGI [28]: 382 nM
